Test results: PubChem BioAssay (NCI)
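Five compound concentrations were applied to cells in 96-well plates for 48 hours; endpoints were derived by simple linear interpolation of the resulting dose-response curve. Here, GI50 denotes the concentration required for 50% inhibition of growth. Definition used: TGI = concentration required for complete inhibition of growth.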

Key:
Assay in all cases: growth of human tumour cells (NCI), 48 h
SNB-19 CNS = system: SNB-19 CNS
OVCAR-3 ovarian = system: OVCAR-3 ovarian
UO-31 renal = system: UO-31 renal
SR leukemia = system: SR leukemia
BT-549 breast = system: BT-549 breast
T-47D breast = system: T-47D breast
NCI-H23 lung = system: NCI-H23 lung
NCI-H226 lung = system: NCI-H226 lung
PC-3 prostate = system: PC-3 prostate
K-562 leukemia = system: K-562 leukemia

SMILES	GI50 (SNB-19 CNS)	TGI (SNB-19 CNS)	GI50 (OVCAR-3 ovarian)	TGI (OVCAR-3 ovarian)	GI50 (UO-31 renal)	TGI (UO-31 renal)	GI50 (SR leukemia)	TGI (SR leukemia)	GI50 (BT-549 breast)	TGI (BT-549 breast)	GI50 (T-47D breast)	TGI (T-47D breast)	GI50 (NCI-H23 lung)	TGI (NCI-H23 lung)	GI50 (NCI-H226 lung)	TGI (NCI-H226 lung)	GI50 (PC-3 prostate)	TGI (PC-3 prostate)	GI50 (K-562 leukemia)	TGI (K-562 leukemia)
N#Cc1c(NC(=O)c2cccs2)[n+]([O-])c2ccccc2[n+]1[O-]	> 100 µM	> 100 µM	> 100000 nM	> 100 µM	> 100000 nM	> 100 µM	> 100000 nM	> 100 µM	> 100000 nM	> 100 µM	89300 nM	> 100 µM	> 100 µM	> 100 µM	86.4 µM	> 100 µM	64.9 µM	> 100 µM	> 100000 nM	> 100 µM
COC(=O)Nc1ccc2ccc3c(NC(=O)OC)ccc4ccc1c2c43 (tested in a mixture with another compound)	13.1 µM	> 50 µM	10600 nM	45.2 µM	5210 nM	18.3 µM	2510 nM	> 50 µM	5500 nM	14 µM	9230 nM	35.6 µM	11.5 µM	> 50 µM	9.2 µM	31.3 µM	6.89 µM	26 µM	3290 nM	> 50 µM
O=[N+]([O-])c1cccc(-c2nc3sccn3c2-c2ccnc(NCCCNS(=O)(=O)c3ccc(F)cc3)n2)c1	4.01 µM	> 100 µM	2310 nM	8.49 µM	1400 nM	8.39 µM	2530 nM	> 100 µM	2140 nM	7.03 µM	303 nM	2.82 µM	2.42 µM	9.16 µM	1.95 µM	7.6 µM	1.14 µM	4.82 µM	1620 nM	> 100 µM
O=C(CNC(=O)c1cccc2ccccc12)Nc1ccccc1Oc1cccc(O)c1	8.73 µM	> 25 µM	1500 nM	> 25 µM	16500 nM	> 25 µM	1050 nM	> 25 µM	> 25000 nM	> 25 µM	9840 nM	> 25 µM	16 µM	> 25 µM	> 25 µM	> 25 µM	7.13 µM	> 25 µM	1050 nM	> 25 µM
O=c1cc/c(=N\Nc2ccccc2)c(=O)/c1=N/Nc1ccccc1	> 50 µM	> 50 µM	> 50000 nM	> 50 µM	> 50000 nM	> 50 µM	> 50000 nM	> 50 µM	> 50000 nM	> 50 µM	> 50000 nM	> 50 µM	> 50 µM	> 50 µM	> 50 µM	> 50 µM	> 50 µM	> 50 µM	> 50000 nM	> 50 µM
CC1C(=O)N=C2C(=CN(Cc3ccccc3)c3ccccc32)C(=O)N1C (stereo not given)		> 100 µM		> 100 µM		> 100 µM		> 100 µM		> 100 µM		> 100 µM		> 100 µM		> 100 µM		> 100 µM		> 100 µM
CCN(CC)c1ccc(/C=N/NC(=O)c2ccc(Nc3ccnc(C(F)(F)F)c3)cc2)c(O)c1	0.39 µM	> 73.6 µM	109 nM	> 70.1 µM	117 nM	1.91 µM	86.2 nM	0.672 µM	380 nM	> 34.9 µM	332 nM	3.7 µM	0.428 µM	9.8 µM	0.288 µM	2.34 µM	0.434 µM	> 100 µM	147 nM	3.47 µM
O=C1C(NCCO)=C(N2CC2)C(=O)C(NCCO)=C1N1CC1		> 100 µM		> 75.8 µM		> 88 µM		51.6 µM		> 100 µM		> 100 µM		74.6 µM		> 94.4 µM		> 100 µM		84.7 µM
N#Cc1nc(-c2cccc(Br)c2)cc(-c2ccc(Nc3nc(N4CCCCC4)nc(N4CCCCC4)n3)cc2)c1N	6.41 µM	> 100 µM	1760 nM	3.54 µM	1680 nM	5.47 µM	1290 nM	> 100 µM	2020 nM	4.36 µM	1300 nM	4.08 µM	2.39 µM	8.33 µM	1.85 µM	3.94 µM	1.94 µM	7.11 µM	2070 nM	> 100 µM
C=C1C(=O)O[C@H]2[C@H]1CC/C(COC(=O)NCCc1ccc(OC)cc1)=C\CC[C@@]1(C)O[C@@H]21	8.65 µM	23.1 µM	2190 nM	5.25 µM	1760 nM	3.26 µM	2070 nM	7.87 µM	2120 nM	6.41 µM	2470 nM	6.52 µM	4.34 µM	18.6 µM	4.11 µM	16.4 µM	8.08 µM	21.7 µM	3080 nM	10.3 µM
